From US12234504B1 (priority 2023, dated 2025)

How the values were obtained:
[1] = target: T1, E. coli DNA gyrase (Escherichia coli, UniProt P0AES4+P0AES6); type: biochemical; conditions: 50 μM compound; for hit in HTS pilot screen (inhibition ≥50% cutoff): duplicate; for fluorescence intensity compared with negative controls (in words): HTS screen
T1 construct: made in house
Experimental: FIGS. 6A-6B. High throughput screening (HTS) pilot screen of the 50-compound library for E. coli DNA gyrase poisoning inhibitors in duplicate. A final compound concentration of 50 μM was used. […] (A) Fluorescence raw data.
A Fluorescence-Based, T5 Exonuclease-Amplified DNA Cleavage Assay to Identify Poisoning Inhibitors for E. coli DNA Gyrase.
For negative control experiments, 1% DMSO was used. […] 0.5 mg/mL of proteinase K was then added to the reaction mixtures to digest DNA gyrase at 50° C. for 30 min. After the DNA samples were diluted 100 times using 1×NEB buffer 4 (20 mM Tris-Acetate, pH 7.9, 50 mM KAc, 10 mM Mg(AC)2, and 1 mM DTT), 30 μL of each DNA sample was transfer to a well of a 384-well plate. 200 nM of T5 exonuclease was used to digest DNA fragment for 2 hours at 37° C. 1×SYBR™ Green was added to all DNA samples. Fluorescence intensity was measured using a Biotek microplate reader with excitation wavelength of 497 nm and emission wavelength of 525 nm.
Z′ was calculated by the following equation: […]

[2] = target: T1, E. coli DNA gyrase; assay: Agarose gel-based DNA gyrase-mediated DNA cleavage assay; type: biochemical; conditions: FIG. 7B
Experimental: FIGS. 2A-2F. Agarose gel-based DNA gyrase cleavage assays were performed as described in Materials and Methods. […] Lane 7 is Lambda DNA HindIII digest as the molecular standard. […] 500 ng of a DNA HindIII digest was digested using 50 nM of T5E in 20 μL of 1× gyrase-mediated DNA cleavage buffer (20 mM Tris-HCl pH 8, 50 mM KAc, 10 mM MgCl2, 2 mM DTT, 1 mM ATP, 0.1 mg/mL BSA) for 30 min in the presence of different concentrations of SDS. […] (E) Effects of sarkosyl on T5 exonuclease (T5E). 500 ng of a DNA HindIII digest was digested using 50 nM of T5E in 20 μL of 1× gyrase-mediated DNA cleavage buffer for 30 min in the presence of different concentrations of sarkosyl. […] Lanes 1-7 contained 0, 5, 10, 20, 30, 40, and 50 nM of T5 exonuclease, respectively.
(§1) DNA Gyrase and Human DNA Topoisomerase IIα Mediated DNA Cleavage Assay.
(§2) 250 ng of relaxed plasmid pBR322 and 20 nM of E. coli DNA gyrase or human DNA topoisomerase IIα were mixed and incubated in 1×gyrase-mediated DNA cleavage buffer (20 mM Tris-HCl pH 8, 50 mM KAc, 10 mM MgCl2, 2 mM DTT, 1 mM ATP, 0.1 mg/mL BSA) at 37° C. for 15 minutes in the presence of an inhibitor or compound. After the incubation, 0.2% SDS and 0.1 mg/ml proteinase K were added to the reaction mixtures to trap the topoisomerase-inhibitor-DNA complex and digest the topoisomerase, respectively, by incubating for an additional 30 min at 37° C. DNA samples were analyzed in 1% agarose gel containing […] ethidium bromide in 1′TAE buffer and photographed under UV light. […] Etoposide was used as a positive control for human DNA topoisomerase IIα-mediated DNA cleavage assays.

[3] = target: T1, E. coli DNA gyrase; type: biochemical; conditions: 20 μM compound, FIG. 7A
[4] = target: T2, T5 exonuclease (Escherichia phage T5, UniProt P06229); assay: Detergent inhibition of T5 exonuclease on lambda DNA HindIII digest; type: biochemical; design: detergent concentration that inhibits T5 exonuclease: dose or concentration left out as unconfirmed
T2 construct: made in house
Experimental: FIGS. 2A-2F. Agarose gel-based DNA gyrase cleavage assays were performed as described in Materials and Methods. […] Lane 7 is Lambda DNA HindIII digest as the molecular standard. […] (C) The appearance and disappearance of the gyrase-mediated linear band of plasmid pBR322 is dependent of the E. coli DNA gyrase concentration. High concentrations of E. coli DNA gyrase also cause disappearance of the supercoiled plasmid in the gyrase-mediated DNA cleavage assays. […] 500 ng of a DNA HindIII digest was digested using 50 nM of T5E in 20 μL of 1× gyrase-mediated DNA cleavage buffer (20 mM Tris-HCl pH 8, 50 mM KAc, 10 mM MgCl2, 2 mM DTT, 1 mM ATP, 0.1 mg/mL BSA) for 30 min in the presence of different concentrations of SDS. […] contained 0.000625, 0.00125, 0.0025, 0.005, 0.0125, and 0.025%, respectively. (E) Effects of sarkosyl on T5 exonuclease (T5E). 500 ng of a DNA HindIII digest was digested using 50 nM of T5E in 20 μL of 1× gyrase-mediated DNA cleavage buffer for 30 min in the presence of different concentrations of sarkosyl. Lanes 3 to 10 contained 0.005, 0.0125, 0.015, 0.02, 0.025, 0.05, 0.125, and 0.25%, respectively. (F) 50 nM of T5 exonuclease completely digested 500 ng of a DNA HindIII digest in 1× gyrase-mediated DNA cleavage buffer in the presence of 0.00125%. Lanes 1-7 contained 0, 5, 10, 20, 30, 40, and 50 nM of T5 exonuclease, respectively.
FIG. 3. […]

[5] = tested on: human DNA topoisomerase IIα; assay: Agarose gel-based human DNA topoisomerase IIα mediated DNA cleavage assay; type: biochemical; conditions: 50 μM etoposide, increasing topoisomerase IIα, FIG. 8A
Experimental: (§3) FIGS. 8A-8C. […] Fluorescence intensity was measured using a Biotek microplate reader with excitation wavelength of 497 nm and emission wavelength of 525 nm.
as §1, §2

[6] = tested on: human DNA topoisomerase IIα; assay: Fluorescence-based DNA cleavage assay for human DNA topoisomerase IIα (T5 exonuclease digestion, SYBR Green staining); type: biochemical; conditions: 50 μM etoposide, […] human TopoIIα, FIG. 8C
Experimental: as §3

[7] = target: T1, E. coli DNA gyrase; conditions: read-out: IC50 against E. coli DNA gyrase; cited from earlier work

T1 sequence (P0AES4 whole entry, one chain of several): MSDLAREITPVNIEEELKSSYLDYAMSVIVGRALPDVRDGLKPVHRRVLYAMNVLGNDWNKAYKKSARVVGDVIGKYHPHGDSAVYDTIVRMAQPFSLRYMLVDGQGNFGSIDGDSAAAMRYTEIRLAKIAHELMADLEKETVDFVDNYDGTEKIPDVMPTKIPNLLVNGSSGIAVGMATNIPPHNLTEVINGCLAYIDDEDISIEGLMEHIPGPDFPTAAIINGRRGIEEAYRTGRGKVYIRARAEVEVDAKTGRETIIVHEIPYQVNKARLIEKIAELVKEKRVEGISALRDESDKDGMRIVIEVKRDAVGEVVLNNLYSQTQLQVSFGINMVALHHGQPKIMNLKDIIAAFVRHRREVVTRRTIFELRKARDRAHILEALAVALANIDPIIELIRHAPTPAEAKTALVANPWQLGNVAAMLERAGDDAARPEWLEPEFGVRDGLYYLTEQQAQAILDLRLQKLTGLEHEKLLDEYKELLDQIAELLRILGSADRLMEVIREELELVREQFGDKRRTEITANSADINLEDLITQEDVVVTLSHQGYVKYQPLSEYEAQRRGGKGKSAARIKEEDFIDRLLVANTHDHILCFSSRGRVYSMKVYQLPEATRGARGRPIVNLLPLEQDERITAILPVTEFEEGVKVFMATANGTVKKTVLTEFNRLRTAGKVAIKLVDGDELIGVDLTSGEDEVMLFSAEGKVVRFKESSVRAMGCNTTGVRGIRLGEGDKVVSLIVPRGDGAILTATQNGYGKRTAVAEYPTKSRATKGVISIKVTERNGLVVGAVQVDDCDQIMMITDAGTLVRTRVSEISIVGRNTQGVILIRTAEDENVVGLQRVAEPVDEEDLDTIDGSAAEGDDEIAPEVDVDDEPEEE
T2 sequence (P06229 whole entry): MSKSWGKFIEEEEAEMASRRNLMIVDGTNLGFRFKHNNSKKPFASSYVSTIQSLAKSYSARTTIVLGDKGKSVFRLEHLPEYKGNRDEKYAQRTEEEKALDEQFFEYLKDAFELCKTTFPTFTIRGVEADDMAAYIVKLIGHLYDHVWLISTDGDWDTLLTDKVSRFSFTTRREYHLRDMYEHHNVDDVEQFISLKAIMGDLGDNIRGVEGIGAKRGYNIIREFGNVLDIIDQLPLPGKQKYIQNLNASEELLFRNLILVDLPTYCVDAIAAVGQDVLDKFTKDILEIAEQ

COc1cccc2c1C(=O)c1c(O)c3c(c(O)c1C2=O)C[C@@](O)(C(=O)CO)C[C@@H]3O[C@H]1C[C@H](N)[C@H](O)[C@H](C)O1 [doxorubicin]
hit in HTS pilot screen (inhibition ≥50% cutoff) [1]: hits and false positive | gyrase-mediated DNA cleavage / gyrase poisoning (in words) [2]: did not cause gyrase-mediated DNA cleavage | effect on SYBR Green fluorescence intensity (in words) [3]: quenched

CCCCCCCCCCCCOS(=O)(=O)[O-].[Na+] [SDS, sodium dodecyl sulfate]
effect on T5 exonuclease activity (in words) ([4]; 50 nM T5E, FIG. 2D/2E, SDS low concentrations, sarkosyl e.g. 0.015%): completely inhibited T5 exonuclease activity | detergent concentration that inhibits T5 exonuclease ([4]; FIG. 3): ≥ 0.05%

CC[C@@]1(O)C(=O)OCc2c1cc1n(c2=O)Cc2cc3c(CN(C)C)c(O)ccc3nc2-1 [topotecan]
fluorescence intensity compared with negative controls (in words) [1]: significant low fluorescence signals | gyrase-mediated DNA cleavage / gyrase poisoning (in words) [2]: do not possess gyrase poisoning properties | effect on SYBR Green fluorescence intensity (in words) [3]: did not reduce the fluorescence intensity

Cc1ccc(C(=O)Nc2ccc(S(=O)(=O)O)c3cc(S(=O)(=O)O)cc(S(=O)(=O)O)c23)cc1NC(=O)c1cccc(NC(=O)Nc2cccc(C(=O)Nc3cc(C(=O)Nc4ccc(S(=O)(=O)O)c5cc(S(=O)(=O)O)cc(S(=O)(=O)O)c45)ccc3C)c2)c1 [suramin]
fluorescence intensity compared with negative controls (in words) [1]: significant low fluorescence signals | gyrase-mediated DNA cleavage / gyrase poisoning (in words) [2]: do not possess gyrase poisoning properties | effect on SYBR Green fluorescence intensity (in words) [3]: did not reduce the fluorescence intensity

CCOc1ccc2nc3cc(N)ccc3c(N)c2c1 [etharcridine]
fluorescence intensity compared with negative controls (in words) [1]: significant low fluorescence signals | gyrase-mediated DNA cleavage / gyrase poisoning (in words) [2]: do not possess gyrase poisoning properties | effect on SYBR Green fluorescence intensity (in words) [3]: did not reduce the fluorescence intensity

CS[C@H]1SC[C@H]2C(=O)N(C)[C@@H](C(C)C)C(=O)OC[C@@H](NC(=O)c3cnc4ccccc4n3)C(=O)N[C@@H](C)C(=O)N(C)[C@@H]1C(=O)N(C)[C@@H](C(C)C)C(=O)OC[C@@H](NC(=O)c1cnc3ccccc3n1)C(=O)N[C@@H](C)C(=O)N2C [echinomycin]
fluorescence intensity compared with negative controls (in words) [1]: significant low fluorescence signals | gyrase-mediated DNA cleavage / gyrase poisoning (in words) [2]: do not possess gyrase poisoning properties | effect on SYBR Green fluorescence intensity (in words) [3]: did not reduce the fluorescence intensity

COc1cc([C@@H]2c3cc4c(cc3[C@@H](O[C@@H]3O[C@@H]5CO[C@@H](C)O[C@H]5[C@H](O)[C@H]3O)[C@H]3COC(=O)[C@H]23)OCO4)cc(OC)c1O [etoposide]
linear and nicked plasmid DNA products (in words) [5]: progressive increase in the linear and nicked plasmid DNA products | fluorescence difference between presence and absence of compound (in words) [6]: significant fluorescence difference

CCn1cc(C(=O)O)c(=O)c2ccc(C)nc21 [nalidixic acid]
fluorescence intensity compared with negative controls (in words) [1]: much lower | hit in HTS pilot screen (inhibition ≥50% cutoff) [1]: hits | IC50 [7]: > 50 µM
